Reference: article PMC7139549, “TLD1433 Photosensitizer Inhibits Conjunctival Melanoma Cells in Zebrafish Ectopic and Orthotopic Tumour Models” (Cancers, 2020)
pEC50: −log10 of the molar value. Where two headings read alike, the source gives them in different places.

Columns and labels:
[1] = system: A431 epidermoid carcinoma cell line; test: SRB cell viability assay, A431; assay type: cell-based, Human
Experimental: (§1) TLD1433 is known to generate reactive oxygen species (ROS) with high quantum efficacy in many cancer cell lines. However, there is no report of the in vitro toxicity of this compound in eye melanoma (UM) cell lines. We determined the cell viability of three conjunctival melanoma cell lines (CRMM1, CRMM2 and CM2005.1), and three uveal melanoma cell lines (OMM1, OMM2.5, MEL270) in the presence of TLD1433, both in the dark or under green light irradiation (21 mW/cm^2, 19 J/cm^2, 520 nm, 15 min), and compared this viability to epidermoid carcinoma A431 and cutaneous melanoma A375 cell lines under the same conditions. […] The phototoxicity index (PI), defined as the ratio of the dark EC50 to the light EC50, was also calculated and represents the amplification of TLD1433 activity with a light trigger. […]
(§2) Figure 2 Cell viability after TLD1433 treatment of eight tumour cell lines (CRMM1, CRMM2, CM2005.1, OMM1, OMM2.5, MEL270, A431, A375). […] The absorbance of Sulforhodamine B in solution was measured at 520 nm. […]
(§3) At day 0, cells were detached using 1mL of trypsin, resuspended in 4 mL of media and transferred to a 15 mL corning falcon tube. Cells were counted using trypan blue and BioRad® TC20™ automated cell counter (Figure 11). […] Next day, the dye was dissolved using Tri-base (0.25%) and absorbance of SRB at 510 nm was recorded from each well using a Tecan plate reader. […]

[2] = system: A375 cutaneous melanoma cell line; test: SRB cell viability assay, A375; assay type: cell-based, Human
Experimental: as §1, §2, §3

[3] = system: wild type zebrafish embryos; test: Maximum tolerated dose in wild type zebrafish embryos; assay type: in vivo; conditions: for Maximum Tolerated Dose (MTD): Wild Type Embryos, 4 treatments, 90 min green light 114 J.cm^−2; for concentration not toxic to embryos in the dark: wild type embryos
Experimental: Water administration (WA) of drugs by skin epithelial cell absorption and drinking is commonly used in zebrafish drug experiments. […] In addition, we also tested IV of TLD1433 by direct injection into the dorsal vein, as well behind the eye injections for RO administration. For IV and RO administration, the compound was injected four times into the embryos at 3, 4, 5 and 6dpf, followed by 60 min drug-to-light interval and the same kinetic and irradiation regime as for the WA administration (Figure 5A).
(A) Schedule of TLD1433 treatment in wild type zebrafish. […] (B) WA, (C) IV, (D) RO. (B–D) Images were made of irradiated (light) and non-irradiated (dark) embryos (n = 30) at 6dpf and the percentages of mortality, malformation and fish length were calculated (shown as means ± SD from three independent experiments). Representative images of embryos under dark and light conditions are shown.
At 2.5, 3.5, 4.5, 5.5 dpf, TLD1433 was added to the fish water and maintained for 12 h. […] At 3, 4, 5, 6 dpf, 1nL of TLD1433 was injected via the dorsal vein or the RO site and maintained for 1 h. […] The images of treated and wild type embryos at 6 dpf were taken using a DFC420C camera coupled to a Leica MZ16FA fluorescence microscope. In order to determine the MTD of tumour cell bearing zebrafish, TLD1433 was performed according to the same procedure, delivered by WA, IV and […] administration as described above for the wild type embryos.

## Cc1ccnc(-c2cc(C)ccn2)c1.Cc1ccnc(-c2cc(C)ccn2)c1.[Cl-].[Cl-].[Ru+2].c1csc(-c2ccc(-c3ccc(-c4nc5c6cccnc6c6ncccc6c5[nH]4)s3)s2)c1 [TLD1433]
[1]; A431, dark, 24 h treatment, SRB, read-out: EC50, dark
  pEC50: < 5.30
[1]; A431, green light 520 nm, 15 min, 21 mW/cm^2, 19 J.cm^−2, DLI 24 h, read-out: EC50,light
  pEC50: 7.31
[2]; A375, dark, 24 h treatment, SRB, read-out: EC50, dark
  pEC50: < 5.30
[2]; A375, green light 520 nm, 15 min, 21 mW/cm^2, 19 J.cm^−2, DLI 24 h, read-out: EC50,light
  pEC50: 7.30
[3]; Intravenous 1 nL, 60 min DLI
  Maximum Tolerated Dose (MTD): 4.6 mM
[3]; Retro-orbital 1 nL, 60 min DLI
  Maximum Tolerated Dose (MTD): 4.6 mM
[3]; Water administration, 12 h DLI
  Maximum Tolerated Dose (MTD): 9.2e-06 mM
[3]; IV 1 nL
  concentration not toxic to embryos in the dark: 11500 µM
[3]; RO 1 nL
  concentration not toxic to embryos in the dark: 11500 µM
[3]; WA
  concentration not toxic to embryos in the dark: 0.023 µM
